Experimental data: patent publication US5089273A, “Ecteinascidins 729, 743, 745, 759A, 759B and 770” (priority 1990, dated 1992)
Values after ≈ are worked out from the molar mass of the structure shown.

Tests used:
Pseudomonas aeruginosa = assay: Antimicrobial Spectrum, zones of inhibition; type: cell-based; conditions: 10 μg/disk, 6.35-mm disk
bacteria = assay: Antibacterial Activity (disk zone of inhibition, Example 4); type: cell-based
Text: | Zone of inhibition (mm)

Bacillus subtilis syn = assay: Antimicrobial Spectrum, zones of inhibition; type: cell-based; conditions: 10 μg/disk, 6.35-mm disk
Escherichia coli = assay: Antimicrobial Spectrum, zones of inhibition; type: cell-based; conditions: 10 μg/disk, 6.35-mm disk
Bacillus subtilis = assay: Antimicrobial Spectrum, zones of inhibition; type: cell-based; conditions: 10 μg/disk, 6.35-mm disk
DNA = assay: biomedical induction assay (BIA), an assay for DNA interaction
Mycobacterium avium = assay: Antimicrobial Spectrum, zones of inhibition; type: cell-based; conditions: 10 μg/disk, 6.35-mm disk
[1] = test system: L1210 mouse leukemia cells; assay: L1210 Tube Dilution Assay; type: cell-based
Text: The L1210 tube dilution assay is described in detail in a publication by L. H. Li, et al., Cancer Research, 39:4816 (1979). ID50 and ID90 refer to the concentration of ecteinascidin needed to inhibit cell growth by […], respectively.

Klebsiella pneumoniae = assay: Antimicrobial Spectrum, zones of inhibition; type: cell-based; conditions: 10 μg/disk, 6.35-mm disk
Penicillium oxalicum = assay: Antimicrobial Spectrum, zones of inhibition; type: cell-based; conditions: 10 μg/disk, 6.35-mm disk
Staphylococcus aureus = assay: Antimicrobial Spectrum, zones of inhibition; type: cell-based; conditions: 10 μg/disk, 6.35-mm disk
P388 leukemia = assay: In vivo P388 mouse leukemia test; conditions: for T/C (%): Table 4; for T/C: Example 6; for antitumor activity (in words): mouse, in vivo
Text: Compounds of this invention are also active in vivo against P388 leukemia in mice. The P388 mouse leukemia test is described in detail in a publication by G. L. Neil et al., Cancer Treatment Reports, 63: 1971-1978 (1979).

M. luteus = assay: Antimicrobial activity vs. M. luteus (disk zones of inhibition); type: cell-based; conditions: for zone of inhibition at 0.05 µg/disc / zone of inhibition at 0.1 µg/disc / zone of inhibition at 0.2 µg/disc / zone of inhibition at 0.4 µg/disc / zone of inhibition at 0.8 µg/disc / zone of inhibition at 1.6 µg/disc: Micrococcus luteus; for zone of inhibition at 0.05 µg/disc: 50 ng/6.35-mm disk; for zone of inhibition at 0.1 µg/disc: 100 ng/6.35-mm disk; for zone of inhibition at 0.2 µg/disc: 200 ng/6.35-mm disk; for zone of inhibition at 0.4 µg/disc: 400 ng/6.35-mm disk; for zone of inhibition at 0.8 µg/disc: 800 ng/6.35-mm disk; for zone of inhibition at 1.6 µg/disc: 1600 ng/6.35-mm disk; for antimicrobial activity (in words): dilutions accurate to within a factor of 2
Description: (§1) The antimicrobial activities (vs. M. luteus) and the cytotoxic activities (vs. CV-1 cells) of the ecteinascidins and ecteinascidin 743 derivatives are shown in Table 1 and 2. […] All of the derivatives of ecteinascidin 743 that were prepared have antimicrobial and cytotoxic activities.

CV-1 cells = assay: Cytotoxic activity vs. CV-1 cells (disk zones of inhibition); type: cell-based; conditions: Cercopithecidae, read-out: Zones of Inhibition; for zone of inhibition at 0.05 µg/disc: 50 ng/6.35-mm disk; for zone of inhibition at 0.1 µg/disc: 100 ng/6.35-mm disk; for zone of inhibition at 0.2 µg/disc: 200 ng/6.35-mm disk; for zone of inhibition at 0.4 µg/disc: 400 ng/6.35-mm disk; for zone of inhibition at 0.8 µg/disc: 800 ng/6.35-mm disk; for zone of inhibition at 1.6 µg/disc: 1600 ng/6.35-mm disk
Description: as §1

Sarcina lutea = assay: Antimicrobial Spectrum, zones of inhibition; type: cell-based; conditions: Micrococcus luteus; 10 μg/disk; 6.35-mm disk
Saccharomyces cerevisiae = assay: Antimicrobial Spectrum, zones of inhibition; type: cell-based; conditions: 10 μg/disk, 6.35-mm disk
Sarcina lutea sens. = assay: Antimicrobial Spectrum, zones of inhibition; type: cell-based; conditions: Micrococcus luteus; 10 μg/disk; 6.35-mm disk
B16 Melanoma = assay: Antitumor activity vs. B16 Melanoma; type: in vivo; conditions: 0.01 mg/kg; Table 5

COc1cc2c(cc1O)CCN[C@]21CS[C@@H]2c3c(OC(C)=O)c(C)c4c(c3[C@H](COC1=O)N1[C@@H]2[C@H]2c3c(cc(C)c(OC)c3O)C[C@@H]([C@@H]1O)N2C)OCO4 [Ecteinascidin 743]
zone of inhibition at 10 µg/disc (Pseudomonas aeruginosa): 0 mm
Zone of inhibition (bacteria; 0.005 μg/disk): trace
zone of inhibition at 0.01 µg/disc (bacteria; 0.01 μg/disk): 7 mm
zone of inhibition at 0.02 µg/disc (bacteria; 0.02 μg/disk): 9 mm
zone of inhibition at 0.05 µg/disc (bacteria; 0.05 μg/disk): 12 mm
zone of inhibition at 0.1 µg/disc (bacteria; 0.1 μg/disk): 14 mm
zone of inhibition at 0.2 µg/disc (bacteria; 0.2 μg/disk): 17 mm
zone of inhibition at 10 µg/disc (Bacillus subtilis syn): 26 mm
zone of inhibition at 10 µg/disc (Escherichia coli): 11 mm
zone of inhibition at 10 µg/disc (Bacillus subtilis): 25 mm
result in biomedical induction assay (BIA) (DNA): negative
zone of inhibition at 10 µg/disc (Mycobacterium avium): 17 mm
IC90 ([1]; L1210, concentration needed to inhibit cell growth by 90 percent, in vitro, read-out: ID90 (the source's name)): 1.7 ng/mL (≈ 2.23 nM)
IC50 ([1]; L1210, read-out: ID50): 0.5 ng/mL (≈ 0.656 nM)
zone of inhibition at 10 µg/disc (Klebsiella pneumoniae): 20 mm
zone of inhibition at 10 µg/disc (Penicillium oxalicum): 10 mm
zone of inhibition at 10 µg/disc (Staphylococcus aureus): 19 mm
T/C (%) (P388 leukemia; 0.015 mg/kg): 167%
T/C (P388 leukemia; 0.031 mg/kg): 161
T/C (P388 leukemia; 0.063 mg/kg): toxic
zone of inhibition at 0.05 µg/disc (M. luteus): 9 mm
zone of inhibition at 0.1 µg/disc (M. luteus): 12 mm
zone of inhibition at 0.2 µg/disc (M. luteus): 13 mm
zone of inhibition at 0.4 µg/disc (M. luteus): 14 mm
zone of inhibition at 0.8 µg/disc (M. luteus): 20 mm
zone of inhibition at 1.6 µg/disc (M. luteus): 23 mm
antimicrobial activity (in words) (M. luteus): approximately equivalent and represent the most potent compounds in the series
zone of inhibition at 0.05 µg/disc (CV-1 cells): 14 mm
zone of inhibition at 0.1 µg/disc (CV-1 cells): 16 mm
zone of inhibition at 0.2 µg/disc (CV-1 cells): 20 mm
zone of inhibition at 0.4 µg/disc (CV-1 cells): 23 mm
zone of inhibition at 0.8 µg/disc (CV-1 cells): 23 mm
zone of inhibition at 1.6 µg/disc (CV-1 cells): 28 mm
zone of inhibition at 10 µg/disc (Sarcina lutea): 27 mm
zone of inhibition at 10 µg/disc (Saccharomyces cerevisiae): 0 mm
zone of inhibition at 10 µg/disc (Sarcina lutea sens.): 35 mm

COc1cc2c(cc1O)CCN[C@]21CS[C@@H]2c3c(OC(C)=O)c(C)c4c(c3[C@H](COC1=O)N1[C@@H]2[C@@H]2N[C@@H](Cc3cc(C)c(OC)c(O)c32)[C@@H]1O)OCO4 [Ecteinascidin 729]
zone of inhibition at 0.063 µg/disc (bacteria; 0.063 μg/disk): 19 mm
zone of inhibition at 0.125 µg/disc (bacteria; 0.125 μg/disk): 20 mm
zone of inhibition at 0.25 µg/disc (bacteria; 0.250 μg/disk): 22 mm
T/C (%) (B16 Melanoma): 246%
T/C (%) (P388 leukemia; 0.0038 mg/kg): 214%
antitumor activity (in words) (P388 leukemia): strong antitumor activity
antitumor activity (in words) (P388 leukemia; listed as Et 729): the most active antitumor agent
zone of inhibition at 0.05 µg/disc (M. luteus): 7 mm
zone of inhibition at 0.1 µg/disc (M. luteus): 8 mm
zone of inhibition at 0.2 µg/disc (M. luteus): 11 mm
zone of inhibition at 0.4 µg/disc (M. luteus): 15 mm
zone of inhibition at 0.8 µg/disc (M. luteus): 16 mm
zone of inhibition at 1.6 µg/disc (M. luteus): 18 mm
antimicrobial activity (in words) (M. luteus): approximately equivalent and represent the most potent compounds in the series
zone of inhibition at 0.05 µg/disc (CV-1 cells): 9 mm
zone of inhibition at 0.1 µg/disc (CV-1 cells): 10 mm
zone of inhibition at 0.2 µg/disc (CV-1 cells): 10 mm
zone of inhibition at 0.4 µg/disc (CV-1 cells): 13 mm
zone of inhibition at 0.8 µg/disc (CV-1 cells): 16 mm
zone of inhibition at 1.6 µg/disc (CV-1 cells): 18 mm
